We go through five compounds from patent publication US6413974B1, “6,9,-disubstituted 2-[trans-(4-aminocyclohexyl) amino] purines” (Aventis Pharmaceuticals Inc., priority 1998, dated 2002).

Values joined by “and” are separate entries in the source; they are usually repeats but may differ in a detail not shown here. Identical values can stand only once. Counter-ions that a name gives are not always drawn. Like-named read-outs stand apart in the source and are kept apart here.

In test [1] the test system is p34^cdc2-cyclin B kinases. Conditions: Havlicek et al. 1997; cited from earlier work.
For test [2], the target named is T1, cdk2/cyclin E (Homo sapiens, UniProt P24941).
T1 construct: made in house; host or cells: insect cells (baculovirus co-infection)
Nature of the test: Cyclin-Dependent Kinase 2 Assay (cdk-2 inhibition). The class given is biochemical. The note with it: GST-Rb substrate, 30 min at 30° C. A digest of the protocol: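 GST-Rb bound to glutathione-Sepharose beads (0.5 μg/well) as substrate in 50 mM HEPES pH 7.5, 10 mM MgCl2, 1 mM EGTA. Recombinant cdk2/cyclin E at 0.1 μg per 100 μl, 30 min at 30 °C. Reaction stopped by filtration, TNEN washes, scintillation counting.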

For test [3], the target named is T2, cdk4/cyclin D1 (Homo sapiens, UniProt P11802).
T2 construct: made in house; host or cells: Sf9 insect cells (Bac-to-Bac baculovirus, pFastBac)
T2 sequence (P11802 whole entry): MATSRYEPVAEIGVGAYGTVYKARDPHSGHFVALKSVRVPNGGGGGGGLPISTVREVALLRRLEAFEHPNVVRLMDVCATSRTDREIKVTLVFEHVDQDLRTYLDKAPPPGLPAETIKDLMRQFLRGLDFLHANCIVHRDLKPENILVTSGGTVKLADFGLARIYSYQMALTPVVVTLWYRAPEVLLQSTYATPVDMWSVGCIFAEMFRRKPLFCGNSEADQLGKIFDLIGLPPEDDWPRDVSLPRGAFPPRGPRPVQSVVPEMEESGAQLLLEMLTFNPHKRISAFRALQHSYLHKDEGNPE
T2 sequence (P24385 whole entry partner): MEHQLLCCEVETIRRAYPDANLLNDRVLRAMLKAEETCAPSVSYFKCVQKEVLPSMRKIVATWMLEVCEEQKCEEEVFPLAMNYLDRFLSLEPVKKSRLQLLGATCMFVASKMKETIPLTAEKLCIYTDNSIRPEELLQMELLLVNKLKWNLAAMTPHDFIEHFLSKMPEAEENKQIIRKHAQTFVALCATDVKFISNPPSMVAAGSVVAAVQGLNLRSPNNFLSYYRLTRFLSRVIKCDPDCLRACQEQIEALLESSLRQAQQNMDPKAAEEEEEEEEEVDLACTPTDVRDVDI
Nature of the test: Cyclin-dependent kinase 4 Assay. The class given is biochemical. The note with it: cdk4/cyclin D1, GST-Rb substrate, 10 μM ATP, 30 min at 37° C.; read-out: CDK4 Inhibition IC50. A digest of the protocol:
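Insect-cell lysate of coexpressed human cdk4/cyclin D1 (0.1 μg) phosphorylated bead-bound GST-Rb (0.5 μg) in 50 mM HEPES pH 7.5, 10 mM MgCl2, 1 mM EGTA for 30 min at 37 °C. Filters were washed with TNEN and scintillation-counted; IC50 values derived.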

The subject of test [4] is MCF-7. The test can be described thus: In vitro tumor cell proliferation, MCF-7. The class given is cell-based, human. The note with it: read-out: In vitro Tumor Cell Proliferation (IC50, μM) Breast MCF-7. The protocol:
The proliferation of tumor cells was measured using a sulforhodamine B assay as described in Skehan, P., et al., J. Natl. Cancer Inst. […] Tumor cells were harvested with trypsin-EDTA, cells that excluded trypan blue were counted, added to 96-well plates and incubated overnight at 37° C. Drug was added to the wells following dilution in culture medium. Three days later, the medium was removed and replenished with medium containing fresh drug and incubated an additional 4 days. The cells were then fixed with 0.1 ml 10% trichloroacetic acid for 60 min at 4° C. The plates were rinsed five times with tap water, air-dried and stained for 30 min with 0.4% sulforhodamine B in 1% acetic acid and air-dried.
Alternatively, the CyQUANT cell proliferation assay was used to quantify tumor cell proliferation. Tumor cells were harvested with trypsin-EDTA, cells that excluded trypan blue were counted, added to 96-well plates and incubated overnight at 37° C. Drug was added to the wells following dilution in culture medium. Three days later the medium was removed and the plates frozen at −80° C. for at least 30 minutes.
MCF7 is a human breast adenocarcinoma, hormone-dependent (HTB 22);

For test [5], the system named is MDA-MB-231. The test can be described thus: In vitro tumor cell proliferation, MDA-MB-231. The class given is cell-based, human. Conditions: read-out: In vitro Tumor Cell Proliferation (IC50, μM) Breast MDA-MB-231. A digest of the protocol:
(§1)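 SRB read-out: 3-day drug exposure, medium and drug renewed, 4 further days, TCA fixation at 4° C, 0.4% SRB stain. CyQUANT alternative: 3-day drug exposure, then plates frozen at −80° C ≥30 min. Cells plated overnight at 37° C before dosing.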

Test [6] relates to HT-29. Nature of the test: In vitro tumor cell proliferation, HT-29. The class given is cell-based, human. Conditions: read-out: In vitro Tumor Cell Proliferation (IC50, μM) Colon HT-29 (converted). A digest of the protocol: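 HT-29 human colon adenocarcinoma cells plated overnight at 37° C., then exposed to drug for 3 days, medium with fresh drug replaced for a further 4 days. Cells fixed with 10% TCA and stained with 0.4% sulforhodamine B; alternatively, CyQUANT read after 3 days of drug exposure.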

In test [7] the test system is HCT-15. Nature of the test: In vitro tumor cell proliferation, HCT-15. The class given is cell-based, human. The note with it: read-out: In vitro Tumor Cell Proliferation (IC50, μM) Colon HCT-15. The essentials:
as §1

The test system of test [8] is A549. Nature of the test: In vitro tumor cell proliferation, A549. The class given is cell-based, human. Conditions: read-out: In vitro Tumor Cell Proliferation (IC50, μM) Lung A549. A digest of the protocol:
as §1

Test [9] deals with DMS-114. Nature of the test: In vitro tumor cell proliferation, DMS-114. The note with it: read-out: In vitro Tumor Cell Proliferation (IC50, μM) Lung DMS-114. The class given is cell-based, human. The essentials: as §1
Test [10] concerns PC-3. The test can be described thus: In vitro tumor cell proliferation, PC-3. The class given is cell-based, human. Conditions: read-out: In vitro Tumor Cell Proliferation (IC50, μM) Prostate PC-3. The essentials: as §1
Test [11] deals with DU 145. The test can be described thus: In vitro tumor cell proliferation, DU 145. The class given is cell-based, human. Conditions: read-out: In vitro Tumor Cell Proliferation (IC50, μM) Prostate DUI45. A digest of the protocol:
as §1

For test [12], the system named is neuronal PC12 cells and sympathetic neurons. The note with it: cited from earlier work.
Test [13] deals with PC12 cells, or rat sympathetic neurons. Conditions: cited from earlier work.
Test [14] relates to cortical neurons. The note with it: cited from earlier work.
Test [15] has as its system proliferating PC12 cells. Conditions: cited from earlier work.
[16] abbreviates: Homo sapiens, MCF7, values without *.
The mark [17] stands for this setting: values without *, trihydrochloride.
Where [18] appears, read: Homo sapiens, MDA-MB-231, values without *.
Setting [19] is: Homo sapiens, HT-29, values without *.
[20] abbreviates: Homo sapiens, HCT-15, values without *.
Setting [21] is: Homo sapiens, A549, values without *.
[22] abbreviates: Homo sapiens, DMS-114, values without *.
Setting [23] is: Homo sapiens, PC-3, values without *.
Where [24] appears, read: Homo sapiens, DU-145, values without *.
Setting [25] is: values without *, dihydrochloride.

As to `CC[C@@H](CO)Nc1nc(NCc2ccccc2)c2ncn(C(C)C)c2n1` (single isomer, unassigned) [(S) enantiomer], in [1], the IC50 is 800 nM.

In the case of `CC(C)n1cnc2c(NCc3ccccc3)nc(N[C@H]3CC[C@H](N)CC3)nc21` [Example 45, 2-[Trans-(4-aminocyclohexyl)amino]-6-(benzylamino)-9-(2-propyl)purine trihydrochloride], the IC50 was 180 nM in test [2]; 12000 nM in test [3]; 1.6 µM in [4] (setting [16]); 1.7 µM in test [4] (setting [17]); 4 µM in test [5] (setting [18]); 3 µM in [5] (setting [17]). The IC50 in [6] (setting [19]) is 4.8 µM; in [6] (setting [17]), 3.5 µM; in test [7] (setting [20]), 16 µM; in test [7] (setting [17]), 17 µM; in test [8] (setting [21]), 2 µM; in test [8] (setting [17]), 1.8 µM. In addition, the IC50 stood at 2.1 µM in test [9] (setting [22]); 1.6 µM in [9] (setting [17]); 2.4 µM in test [10] (setting [23]); 1.4 µM in test [10] (setting [17]); 2.5 µM in [11] (setting [24]); 1.9 µM in [11] (setting [17]).

With `N[C@H]1CC[C@H](Nc2nc(NCCCn3ccnc3)c3ncn(C4CCCC4)c3n2)CC1` [Example 46, 2-[Trans-(4-aminocyclohexyl)amino]-6-[3-(1-imidazolyl)propylamino]-9-cyclopentylpurine dihydrochloride], the IC50 is 20 nM and 17 nM and 21 nM in test [2]; 450 nM in test [3]; 3.5 µM in test [4] (setting [16]); 4.9 µM in [4] (setting [25]); 5.2 µM in [5] (setting [18]); 7 µM in test [5] (setting [25]). Besides, the IC50 in [6] (setting [19]) is 6.2 µM; in [6] (setting [25]), 9.7 µM; in [7] (setting [25]), 16 µM; in test [8] (setting [21]), 6 µM; in [8] (setting [25]), 6.7 µM; in test [9] (setting [22]), 5.4 µM. Also, the IC50 worked out at 7.4 µM in [9] (setting [25]); 2 µM in test [10] (setting [23]); 3 µM in [10] (setting [25]); 5.1 µM in [11] (setting [24]); 6 µM in [11] (setting [25]).

As to `CN1CC[C@H](c2c(O)cc(O)c3c(=O)cc(-c4ccccc4Cl)oc23)[C@H](O)C1` [Flavoipiridol, reference compound], the IC50 was found to be 0.06 µM in [4] (setting [16]); 0.095 µM in test [5] (setting [18]); 0.1 µM in test [7] (setting [20]); 0.08 µM in test [8] (setting [21]); 0.08 µM in [9] (setting [22]); 0.07 µM in test [10] (setting [23]). For the same compound, the IC50 in [11] (setting [24]) is 0.08 µM; in test [14] (Park et al. 1997, read-out: IC50, protection against camptothecin-induced cortical neuronal death), 100 nM. Also, the “apoptosis of post-mitotic differentiated or sympathetic neurons” value in [12] (following withdrawal of NGF) is “prevented apoptosis”. The “death of neuronal PC12 cells and sympathetic neurons” value in [12] (two model systems of neuronal survival, Park et al. 1996) was “suppress the death”. The “cell death at day 6” value in test [13] (both or individual olomoucine or flavopiridol, in the presence or absence of camptothecin) was “approximately 30%”. Besides, the “concentration giving maximal protection from death” value in test [13] (camptothecin-treated PC12 cells or rat sympathetic neurons) was 1 µM. In addition, the “minimum concentration that fully inhibits DNA synthesis” value in test [15] is 1 µM.

On to `Cn1cnc2nc(NCCO)nc(NCc3ccccc3)c21` [iso-olomoucine], for which the “prevention of cell death of camptothecin-treated neuronal cells” value in test [13] (PC12 cells / sympathetic neurons) and in test [14] (cortical neurons) was “failed to prevent the cell death” in each case.
